Where two headings read alike, the source gives them in different places.
Tests used:
[1] = 10 MHz, 37° C
Experimental: The relations of protons present in water and plasma exposed to the chelate product of Example 7 was tested by NMR for relaxities, in msec, at 10 MHz, 37° C.

selected body organs = conditions: 30 min
Experimental: Each of four rabbits was injected intravenously with one of the following amounts of the solution obtained in Example 7: 0.01 mmoles/kg, 0.05 mmoles/kg, 0.10 mmoles/kg and 0.20 mmoles/kg. The rabbits were sacrificed 30 min post injection, and the proton relaxation values of selected body organs were measured with NMR, in vitro at 10 MHz.

[2] = Experimental: The compound DPDP was studied potentiometrically from pH 11.2 to 2.0. Data sets were collected on a custom-built automatic potentiometric titration apparatus composed of a METROHM 655 DOSIMAT automatic buret, a FISHER ACCUMET pH meter with a CORNING calomel combination electrode, a custom-blown water jacketed titration cell, a BRINKMAN LAUDA K-2/R constant temperature bath and a COMMODORE 64 computer. […] Data analysis was performed on an IBM-AT computer using the least squares program, BETA (Harris, W. et al, supra), and the data analysis program, HANDNBAR (Harris, W. et al, supra). The titrants were standardized by phenophthalein titration as follows: KOH was calibrated against potassium hydrogen phthalate (a primary standard), and HCl solutions were calibrated against the KOH standard. […] All solutions were made from distilled, deionized water that was further purified on a MILLI-Q cartridge system, degassed, and then kept under an atmosphere of argon which had been scrubbed for CO2 and O2. Additions of EDTA and Mn(II) solutions were performed using calibrated GILMOT pipets.
The metal complex titration was performed by adding 152.2 mg (0.2383 mmoles) to 74.6 ml of a high pH aqueous solution.

[3] = defects not observable without Mn(DPDP)

## Cc1ncc(COP(=O)(O)O)c(CN(CCN(CC(=O)[O-])Cc2c(COP(=O)(O)O)cnc(C)c2O)CC(=O)[O-])c1O.[Mn+2] [Mn(DPDP), sodium-calcium salt of a manganese chelate complex of N,N,-bis-(pyridoxal-5-phosphate)ethylenediamine-N,N'-diacetic acid or N,N'-bis(3-hydroxy-2-methyl-5-phosphonomethyl-4-pyridylmethyl)ethylenediamine-N,N'-diacetic acid]
[1]; 0.000039 molar
  T1 (Plasma): 1103 ms
[1]; 0.000078 molar
  T1 (Plasma): 995 ms
[1]; 0.000156 molar
  T1 (Plasma): 856 ms
  T1 (Water): 1470 ms
[1]; 0.000312 molar
  T1 (Plasma): 624 ms
  T1 (Water): 1083 ms
[1]; 0.000625 molar
  T1 (Plasma): 398 ms
  T1 (Water): 639 ms
[1]; 0.00125 molar
  T1 (Plasma): 240 ms
  T1 (Water): 332 ms
[1]; 0.0025 molar
  T1 (Plasma): 139 ms
  T1 (Water): 175 ms
  T2 (Plasma): 124 ms
[1]; 0.005 molar
  T1 (Plasma): 74 ms
  T1 (Water): 100 ms
  T2 (Plasma): 68 ms
  T2 (Water): 86 ms
[1]; 0.010 molar
  T1 (Plasma): 40 ms
  T1 (Water): 43 ms
  T2 (Plasma): 34 ms
  T2 (Water): 41 ms
Selected body organs; 0.05-0.20 mmol/kg, i.v.
  uptake by the heart through the dose range studied: continues to uptake
Selected body organs; Blood, 0.01 mmol/kg i.v.
  T1: 844 ms
Selected body organs; Blood, 0.05 mmol/kg i.v.
  T1: 613 ms
Selected body organs; Blood, 0.10 mmol/kg i.v.
  T1: 506 ms
Selected body organs; Blood, 0.20 mmol/kg i.v.
  T1: 411 ms
Selected body organs; Brain, 0.01 mmol/kg i.v.
  T1: 554 ms
  T2: 76 ms
Selected body organs; Brain, 0.05 mmol/kg i.v.
  T1: 496 ms
  T2: 82 ms
Selected body organs; Brain, 0.10 mmol/kg i.v.
  T1: 590 ms
  T2: 90 ms
Selected body organs; Brain, 0.20 mmol/kg i.v.
  T1: 352 ms
  T2: 66 ms
Selected body organs; Fat, 0.05 mmol/kg i.v.
  T1: 200 ms
  T2: 139 ms
Selected body organs; Fat, 0.10 mmol/kg i.v.
  T1: 183 ms
  T2: 115 ms
Selected body organs; Fat, 0.20 mmol/kg i.v.
  T1: 192 ms
Selected body organs; Heart, 0.05 mmol/kg i.v.
  T1: 353 ms
  T2: 54 ms
Selected body organs; Heart, 0.10 mmol/kg i.v.
  T1: 300 ms
  T2: 51 ms
Selected body organs; Heart, 0.20 mmol/kg i.v.
  T1: 205 ms
  T2: 47 ms
Selected body organs; Large Int., 0.01 mmol/kg i.v.
  T1: 283 ms
  T2: 64 ms
Selected body organs; Large Int., 0.05 mmol/kg i.v.
  T1: 365 ms
  T2: 83 ms
Selected body organs; Large Int., 0.10 mmol/kg i.v.
  T1: 290 ms
  T2: 57 ms
Selected body organs; Large Int., 0.20 mmol/kg i.v.
  T1: 256 ms
  T2: 74 ms
Selected body organs; Liver, 0.01 mmol/kg i.v.
  T1: 176 ms
  T2: 39 ms
Selected body organs; Liver, 0.05 mmol/kg i.v.
  T1: 76 ms
  T2: 31 ms
Selected body organs; Liver, 0.10 mmol/kg i.v.
  T1: 65 ms
  T2: 23 ms
Selected body organs; Liver, 0.20 mmol/kg i.v.
  T1: 68 ms
  T2: 25 ms
Selected body organs; Lung, 0.05 mmol/kg i.v.
  T1: 575 ms
  T2: 113 ms
Selected body organs; Lung, 0.10 mmol/kg i.v.
  T1: 435 ms
  T2: 61 ms
Selected body organs; Lung, 0.20 mmol/kg i.v.
  T1: 376 ms
  T2: 63 ms
Selected body organs; Renal Cort., 0.01 mmol/kg i.v.
  T1: 298 ms
  T2: 65 ms
Selected body organs; Renal Cort., 0.05 mmol/kg i.v.
  T1: 210 ms
  T2: 57 ms
Selected body organs; Renal Cort., 0.10 mmol/kg i.v.
  T1: 188 ms
  T2: 55 ms
Selected body organs; Renal Cort., 0.20 mmol/kg i.v.
  T1: 143 ms
  T2: 53 ms
Selected body organs; Renal Med., 0.01 mmol/kg i.v.
  T1: 502 ms
  T2: 99 ms
Selected body organs; Renal Med., 0.05 mmol/kg i.v.
  T1: 223 ms
  T2: 57 ms
Selected body organs; Renal Med., 0.10 mmol/kg i.v.
  T1: 209 ms
  T2: 48 ms
Selected body organs; Renal Med., 0.20 mmol/kg i.v.
  T1: 127 ms
  T2: 60 ms
Selected body organs; Skel. Musc., 0.05 mmol/kg i.v.
  T1: 494 ms
  T2: 47 ms
Selected body organs; Skel. Musc., 0.10 mmol/kg i.v.
  T1: 425 ms
  T2: 31 ms
Selected body organs; Skel. Musc., 0.20 mmol/kg i.v.
  T1: 232 ms
  T2: 31 ms
Selected body organs; Small Int., 0.01 mmol/kg i.v.
  T1: 324 ms
  T2: 72 ms
Selected body organs; Small Int., 0.05 mmol/kg i.v.
  T1: 237 ms
  T2: 52 ms
Selected body organs; Small Int., 0.10 mmol/kg i.v.
  T1: 218 ms
  T2: 46 ms
Selected body organs; Small Int., 0.20 mmol/kg i.v.
  T1: 131 ms
  T2: 46 ms
Selected body organs; Stom., 0.05 mmol/kg i.v.
  T1: 245 ms
  T2: 41 ms
Selected body organs; Stom., 0.10 mmol/kg i.v.
  T1: 242 ms
  T2: 52 ms
Selected body organs; Stom., 0.20 mmol/kg i.v.
  T1: 271 ms
  T2: 53 ms
Selected body organs; Urine, 0.01 mmol/kg i.v.
  T1: 821 ms
Selected body organs; Urine, 0.05 mmol/kg i.v.
  T1: 150 ms
  T2: 136 ms
Selected body organs; Urine, 0.10 mmol/kg i.v.
  T1: 90 ms
  T2: 75 ms
Selected body organs; rabbit, i.v.
  dose saturating the liver and kidneys: 0.10 mmol/kg
  uptake by the brain: observed at higher doses
  uptake in the heart, liver and kidneys: rapid uptake
[2]; Mn(II) chelate, potentiometric, pH 11.1 to 2.0
  log Kf (formation constant): 14.8
[2]; physiological pH, Mn stabilized at the +2 valence
  binding of Mn(II) ion to the chelating agent at physiological pH: quantitatively bound
[2]; titration data
  pH below which the complex begins to demetallate: below 4.5
[3]
  detection of blood-brain barrier defects by NMRI tomography: defects were observed by NMRI tomography
